From patent US9260391B2, “Hypoglycemic dihydropyridones” (The Trustees of Columbia University in the City of New York, priority 2008, dated 2016)
Entries after “also recorded” stand apart in the source; their conditions may differ.

Legend:
Format in all cases: in vivo, rat
Lewis rats [1] = experiment: IPGTT of analogs HG-1 to HG-11, compounds given orally (FIG. 15); details: 2 mg/kg orally; for hypoglycemic activity in IPGTT compared with TBZ / HG-3: FIG. 15
Protocol: FIG. 15 is a bar graph showing the results of testing various analogs HG-1 to HG-11 in IPGTT glucose tolerance tests in rats. Results for TBZ, emetine, and olanzapine are also shown. Lewis rats fasted for 6 hours were administered the compounds orally (30 min, 2 mg/kg) followed by intraperitoneal glucose injection (0 min, […]), and plasma glucose levels were monitored for 120 mins. Results are presented as AUC percentage of the vehicle. Error bars indicate SEM (n=5).
Racemic HG-2 and its diastereoisomer HG-1 were evaluated for their ability to improve glucose tolerance by performing intraperitoneal glucose tolerance tests (IPGTT) in rats. IPGTT testing is described above. See also Murthy, R., et al., Eur. J. Nucl. Med. Mol. Imaging, 2008, 35(4), 790-797.

Lewis rats [2] = experiment: Intraperitoneal glucose tolerance test (IPGTT), compounds given i.v.; details: for area under the curve from glucose tolerance tests: each series a separate experiment; for AUC Blood Glucose IPGTT: 2 mg/kg (2.0 μg/gbw) i.v.; for blood glucose levels around sixty minutes following glucose challenge: i.v. injection at 2 mg/kg body weight
Protocol: (§1) All animal studies were reviewed and approved by the Institutional Animal Care and Use Committee (IACUC) at Columbia University's Medical School. All experiments were performed in accordance with the IACUC approved procedures. Normal male Lewis rats (100-400 grams) were obtained from Taconic (Taconic Inc., Germantown, N.Y.) and were housed under conditions of controlled humidity (55±5%), temperature (23±1° C.), and lighting (light on: 06.00-18.00 hours) with free access to standard laboratory rat chow and water. Rats were handled daily to minimize nonspecific stress for more than 7 days before the experiments began. In most experiments, it was necessary to measure blood glucose in fasting animals. For these groups, food was removed at the beginning of the light cycle, 6 hours before glucose levels were measured. Diabetes mellitus was induced by intraperitoneal injection of streptozotocin (Sigma Chemical Co., St. Louis, Mo.) (25 to 50 mg/kg) to animals (100 to 150 grams) that had been fasted 4 hours to enhance the effectiveness of STZ treatment.
The STZ solution was prepared fresh by dissolving it in 0.1 M citrate buffer (pH 5.5) and terminally sterile filtered. Control Lewis age and weight matched rats received a 0.5 ml/kg citrate vehicle alone via intraperitoneal injection. Sixty minutes prior to intraperitoneal glucose tolerance testing (IPGTT), anesthesia of male Lewis rats was induced with isoflurane (3-4% in oxygen) and maintained with 1-2% isoflurane in oxygen. Anaesthetized rats were administered TBZ and other indicated compounds at the indicated dose by intravenous (i.v.) injection using the penile vein. TBZ was dissolved in neat sterile dimethylsulfoxide (DMSO) and diluted (always more than 10 fold) in sterile saline. Rats received injections of vehicle alone (10% DMSO in saline) or reserpine (in saline). Animals recovered fully before receiving IPGTT.
(§2) Blood samples were collected from a superficial blood vessel in the tails of the rats following 6 hours of fasting between 12:00 noon and 2:00 p.m. The fasting blood glucose (BG) levels of the rats were measured using an Accu-Check blood glucose monitoring system (Roche Diagnostics, Sommerville, N.J.). Intraperitoneal glucose tolerance tests (IPGTT) were performed in 6 hour fasting un-anaesthetized animals. Briefly, after baseline BG measurements, animals received an intraperitoneal (i.p.) injection of 1 gram glucose/kilogram body weight. To minimize stress during the procedure, rats were handled by the same operator during acclimatization and later during weighing and IPGTT. Blood samples (approximately 30 μl) were collected at baseline and then again 15, 30, 60, 90, and 120 minutes following i.p. glucose administration. BG concentrations were measured immediately on these samples and the remainder processed.
(§3) Plasma was immediately separated by centrifugation at 3000×g for 15 minutes and then stored at −20° C. until analysis. Insulin and glucagon concentration measurements in rat plasma were performed by ELISA as per the manufacturer's instructions using kits from Linco Research Inc. (St. Charles, Mo.) and Alpco Diagnostics (Salem, N.H.), respectively. To validate the test, saline injections were performed by the same method. […] The area under the IPGTT glucose concentration×time curve (AUCIPGTT) was calculated by the trapezoidal rule. The area under the insulin or glucagon concentration×time curve (AUC INS or AUC GCG) was calculated in a similar manner.
Anaesthetized rats were administered TBZ, THB, butamol, reserpine, emetine, or HG-6 at a dose of approximately 2-3 mg/kg body weight by intravenous (i.v.) injection using the penile vein. TBZ, THB, butamol, reserpine, emetine, and HG-6 were each separately dissolved in neat sterile dimethylsulfoxide (DMSO) and diluted (always more than 10 fold) in sterile saline. Rats received injections of vehicle alone (10% DMSO in saline) or reserpine (in saline). Animals recovered fully before receiving IPGTT. […]

diabetic Lewis rats = experiment: IPGTT in streptozotocin-induced diabetic Lewis rats
Protocol: as §1, with “In most experiments, it was necessary to measure blood glucose in fasting animals.” left out, “Diabetes mellitus was induced by intraperitoneal injection of streptozotocin (Sigma Chemical Co., St. Louis, Mo.) (25 to 50 mg/kg) to animals (100 to 150 grams) that had been fasted 4 hours to enhance the effectiveness of STZ treatment.” left out
Blood samples were collected from a superficial blood vessel in the tails of the rats following 6 hours of fasting between 12:00 noon and 2:00 p.m. The fasting blood glucose (BG) levels of the rats were measured using an Accu-Check blood glucose monitoring system (Roche Diagnostics, Sommerville, N.J.). […] BG concentrations were measured immediately on these samples and the remainder processed.
Plasma was immediately separated by centrifugation at 3000×g for 15 minutes and then stored at −20° C. until analysis. […] The area under the IPGTT glucose concentration×time curve (AUCIPGTT) was calculated by the trapezoidal rule. […]

[3] = test system: dopamine content of brain and pancreas tissue; experiment: Dopamine measurements in brain and pancreas extracts (ELISA)
Protocol: Anaesthetized rats received an intravenous injection of TBZ and were sacrificed one hour later. Euthanasia was performed by exsanguination of the anesthetized animal. Brain and pancreas were harvested as quickly as possible and frozen at −80° C. until use. Frozen tissue was pulverized in a liquid nitrogen cooled mortar and extracted in 0.01 N HCl. The tissue extract was centrifuged at 10,000×g at 4° C. to remove debris and the total protein was estimated by reading the absorbance at 280 nm. The concentration of dopamine in the extract was estimated using an ELISA kit from Rocky Mountain Diagnostics (Colorado Springs, Colo.) per the manufacturer's instructions and normalized to the extract protein concentration.

Lewis rats [4] = experiment: Plasma insulin and glucagon during IPGTT (ELISA)
Protocol: as §2, §3

[5] = single dose 2-3 mg/kg body weight i.v., FIG. 12
[6] = 2 mg/kg body weight i.v., Lewis rats 9-11 weeks old, vs vehicle (DMSO)

Structure (SMILES): COc1ccc([C@@H]2C[C@H](O)[C@@H](CC(C)C)CN2)cc1OC [HG-1]
- hypoglycemic activity in IPGTT compared with TBZ / HG-3 (Lewis rats [1]): less potent than TBZ

Structure (SMILES): COc1ccc(C2CC(O)C(CC(C)C)CN2)cc1OC (stereo not shown) [HG-2]
- hypoglycemic activity in IPGTT compared with TBZ / HG-3 (Lewis rats [1]): less potent than TBZ

Structure (SMILES): COc1ccc(C2CC(=O)CC(=O)N2)cc1OC (stereo not shown) [HG-5]
- hypoglycemic activity in IPGTT compared with TBZ / HG-3 (Lewis rats [1]): loss of the improved activity

Structure (SMILES): COc1cc2c(cc1OC)C1CC(N)C(CC(C)C)CN1CC2 (stereo not shown) [HG-6, 3-isobutyl-9,10-dimethoxy-2,3,4,6,7,11b-hexahydro-1H-pyrido[2,1-a]isoquinolin-2-amine]
- blood glucose excursion during IPGTT (Lewis rats [2]; [5]): consistently reduced the blood glucose excursion
- area under the curve from glucose tolerance tests (Lewis rats [2]; [5]): consistently suppressed the area under the curve; also recorded: depress the area under the curve

Structure (SMILES): COc1ccc(C2CC(OCC(C)C)=CC(=O)O2)cc1OC (stereo not shown) [HG-7]
- hypoglycemic activity in IPGTT compared with TBZ / HG-3 (Lewis rats [1]): loss of the improved activity

Structure (SMILES): COc1cc2c(cc1OC)C1CC(OCC(C)C)=CC(=O)N1CC2 (stereo not shown) [HG-8]
- hypoglycemic activity in IPGTT compared with TBZ / HG-3 (Lewis rats [1]): active but less potent

Structure (SMILES): COC1=CC(=O)OC(c2ccc(OC)c(OC)c2)C1 (stereo not shown) [HG-9]
- hypoglycemic activity in IPGTT compared with TBZ / HG-3 (Lewis rats [1]): loss of the improved activity

Structure (SMILES): COC1=CC(=O)N2CCc3cc(OC)c(OC)cc3C2C1 (stereo not shown) [HG-10]
- hypoglycemic activity in IPGTT compared with TBZ / HG-3 (Lewis rats [1]): active but less potent

Structure (SMILES): COc1cc2c(cc1OC)[C@@H]1CC(=O)[C@@H](CC(C)C)CN1CC2 [TBZ, tetrabenazine]
- AUC Blood Glucose IPGTT (Lewis rats [2]): smaller area under the curve; also recorded: lower than that for vehicle and butamol treated animals
- blood glucose excursion during IPGTT (Lewis rats [2]; [6]): reduced the blood glucose excursion
- blood glucose excursion during IPGTT (Lewis rats [2]; 2 mg/kg body weight i.v., Lewis rats 9-11 weeks old, vs vehicle (DMSO), listed as Tetrabenazine): reduced the blood glucose excursion
- blood glucose excursion during IPGTT (Lewis rats [2]; Lewis rats 9-11 week old, TBZ 1.6 μg/gm body weight i.v., vs vehicle): reduces the blood glucose excursion
- blood glucose excursion during IPGTT (Lewis rats [2]; Lewis rats 9-11 week old, TBZ 1.6 μg/gm body weight i.v., vs vehicle, listed as tetrabenazine): significant change in the size and shape of the glucose disposition curve
- reduction of the glucose excursion (areas under the curve during IPGTT) (Lewis rats [2]; TBZ 1.6 μg/gbw): 40-50%
- AUC IPGTT of controls compared with TBZ treated animals (Lewis rats [2]; TBZ 1.6 μg/gm, series of experiments n=4, p<0.05): significantly higher
- baseline fasting glucose concentration (Lewis rats [2]; after TBZ administration, before glucose challenge, data not shown): no reproducible differences were observed
- blood glucose levels around sixty minutes following glucose challenge (Lewis rats [2]): returned to control or near normal levels
- blood glucose excursion during IPGTT (Lewis rats [2]; [5]): consistently reduced the blood glucose excursion
- area under the curve from glucose tolerance tests (Lewis rats [2]; [5]): consistently suppressed the area under the curve; also recorded: depress the area under the curve
- dose dependence of AUC IPGTT (Lewis rats [2]; varying doses of TBZ, normalized to each animal's untreated baseline IPGTT): complex dose response effect; also recorded: reduces the blood glucose excursion in a dose dependent manner
- blood glucose excursion / area under the curve in IPGTT, diabetic rats (diabetic Lewis rats; STZ-diabetic Lewis rats 5-8 weeks, TBZ 1.6 μg/gm i.v.): smaller area under the curve; also recorded: reduces the blood glucose excursion during IPGTT in diabetic Lewis rats
- blood glucose levels before i.p. glucose challenge, diabetic rats (diabetic Lewis rats; around sixty minutes following i.v. injection of TBZ): returned to control or near normal levels
- dopamine content of brain and pancreas tissue ([3]; TBZ 1.6 μg/gm body weight i.v., one hour later, normalized to total protein): reduces the dopamine content of brain and pancreas tissue
- dopamine content of pancreas and brain ([3]; one hour after injection of 10 μg/gm body weight of tetrabenazine): significantly depleted the dopamine content of pancreas and brain
- glucose-stimulated insulin and glucagon secretion in vivo (Lewis rats [4]; TBZ 1.6 μg/gm, Lewis rats 9-11 week old, during IPGTT): alters glucose-stimulated insulin and glucagon secretion in vivo
- plasma insulin levels relative to vehicle treated controls (Lewis rats [4]; following TBZ and glucose challenge): greater
- plasma glucagon levels relative to controls (Lewis rats [4]; following i.v. TBZ administration and glucose challenge): generally lower
- AUC INS with TBZ treatment relative to AUC INS of control animals (Lewis rats [4]; four out of five experiments): greater than two fold
- baseline plasma concentrations of glucagon (Lewis rats [4]; prior to glucose challenge): sometimes lower than controls, although these differences did not reach statistical significance
- AUC GCG, less than AUC GCG of control animals (Lewis rats [4]; three of five experiments): 75%-85%
- decrease of the AUC IPGTT (area under the blood glucose concentration-time curve) (Lewis rats [1]; 30 min before i.p. glucose, relative to vehicle, n=5): 26%

Structure (SMILES): COc1ccc2c(c1OC)CN1CCc3cc4c(cc3C1C2)OCO4 (stereo not shown) [THB, tetrahydroberberine]
- AUC Blood Glucose IPGTT (Lewis rats [2]): smaller area under the curve; also recorded: lower than that for vehicle and butamol treated animals
- blood glucose excursion during IPGTT (Lewis rats [2]; [6]): reduce the blood glucose excursion
- blood glucose levels around sixty minutes following glucose challenge (Lewis rats [2]): returned to control or near normal levels

Structure (SMILES): CC(C)(C)NCC(O)c1ccc(O)c(CO)c1 (stereo not shown) [butamol]
- AUC Blood Glucose IPGTT (Lewis rats [2]): smaller area under the curve
- blood glucose excursion during IPGTT (Lewis rats [2]; [6]): did not reduce the blood glucose excursion; also recorded: does not reduce the blood glucose excursion
- blood glucose levels around sixty minutes following glucose challenge (Lewis rats [2]): returned to control or near normal levels

Structure (SMILES): COc1ccc(-c2cc(OCC(C)C)cc(=O)[nH]2)cc1OC [compound 17]
- hypoglycemic activity in IPGTT compared with TBZ / HG-3 (Lewis rats [1]): loss of the improved activity

Structure (SMILES): CC[C@H]1CN2CCc3cc(OC)c(OC)cc3[C@@H]2C[C@@H]1C[C@H]1NCCc2cc(OC)c(OC)cc21 [emetine]
- AUC Blood Glucose IPGTT (Lewis rats [2]): smaller area under the curve; also recorded: lower than that for vehicle and butamol treated animals
- blood glucose excursion during IPGTT (Lewis rats [2]; [6]): reduce the blood glucose excursion
- blood glucose levels around sixty minutes following glucose challenge (Lewis rats [2]): returned to control or near normal levels
- blood glucose excursion during IPGTT (Lewis rats [2]; [5]): consistently reduced the blood glucose excursion
- area under the curve from glucose tolerance tests (Lewis rats [2]; [5]): consistently suppressed the area under the curve
- area under the curve from glucose tolerance tests (Lewis rats [2]; single dose 2-3 mg/kg body weight i.v., FIG. 12, listed as emitine): depress the area under the curve

Structure (SMILES): COC(=O)[C@H]1[C@H]2C[C@@H]3c4[nH]c5cc(OC)ccc5c4CCN3C[C@H]2C[C@@H](OC(=O)c2cc(OC)c(OC)c(OC)c2)[C@@H]1OC [reserpine]
- AUC Blood Glucose IPGTT (Lewis rats [2]): smaller area under the curve
- blood glucose excursion during IPGTT (Lewis rats [2]; [6]): reduce the blood glucose excursion
- blood glucose levels around sixty minutes following glucose challenge (Lewis rats [2]): returned to control or near normal levels
- blood glucose and AUC IPGTT relative to untreated controls (Lewis rats [2]; reserpine single concentration 25 μg/gbm, data not shown): persistent hyperglycemia and larger AUC IPGTT
